Results: PMC5423977, “Safety, pharmacokinetics, and pharmacodynamics of BMS-986142, a novel reversible BTK inhibitor, in healthy participants” (European Journal of Clinical Pharmacology, 2017)
Like-named read-outs stand apart in the source and are kept apart here.

Test: Plasma pharmacokinetics of BMS-986142, MAD
Type: in vivo, human
Settings: for AI_AUC geometric mean (%CV): MAD; for AI_AUC geometric mean (%CV) / AUC / Cmax / concentration at 14 day / Tmax / half-life: n = 6; for AUC / Cmax / concentration at 14 day / Tmax / half-life: human, plasma, oral; for AUC: read-out: AUC(TAU) geometric mean (%CV); for Cmax: read-out: Cmax geometric mean (%CV); for concentration at 14 day: read-out: Cmin geometric mean (%CV); for Tmax: read-out: Tmax median (min, max); for half-life: read-out: T1/2 mean (SD) (converted)
Experimental: Eligible participants were confined to the clinical facility (WCCT Global, LLC, Cypress, CA) the day before dosing (day −1) and randomized to receive SAD or MAD treatment under fasting conditions for 10 h. In the SAD group, eight healthy non-Japanese participants were assigned to each of up to six sequential dose panels (single oral doses of 5, 15, 50, 100, 300, and 900 mg BMS-986142) or placebo. Within each dose panel, participants were randomized in a 3:1 ratio to receive BMS-986142 (n = 6) or placebo (n = 2). In the MAD group, eight healthy non-Japanese participants were assigned to each of four sequential dose panels (daily oral doses of 25, 75, 200, and 350 mg BMS-986142) or placebo. Within each dose panel, participants were randomized in a 3:1 ratio to receive once-daily (QD) doses of BMS-986142 or placebo from day 1 to day 14 (Online Resource 1). Escalation to the next dose level in SAD and MAD was conducted after safety assessment had been completed and the treatment was considered safe and well tolerated. Additionally, dose levels in MAD were selected not to exceed the steady-state exposure of BMS-986142 (AUC: 22,920 ng h/mL) at NOAEL in rats obtained from a 1-month GLP toxicology study.
Blood samples for the measurement of BMS-986142 were collected up to 168 h after dosing of BMS-986142 on day 1 for participants in SAD. In MAD, blood samples were collected up to 24 h on day 1 and up to 120 h on day 14 (the last day of treatment). Blood samples for the measurement of MTX were collected up to 48 h after dosing of MTX on days 1 and 8.
Plasma samples were analyzed for BMS-986142 levels with a validated method using liquid chromatography tandem mass spectrometry (LC-MS/MS) detection. The analyte was extracted from 50 μL of plasma using a liquid–liquid extraction method. Methyl tert-butyl ether was used as the extraction solvent. The lower limit of quantification (LLOQ) was 1.00 ng/mL in plasma. Plasma samples were analyzed for methotrexate levels using LC-MS/MS detection. Analytes were isolated from 50 μL plasma through solid phase extraction using Waters Oasis MAX, 10-mg, 96-well SPE plates. The final extract was analyzed using LC-MS/MS detection. LLOQ was 1.00 ng/mL in plasma. Detailed methodology quantitating the concentration level of BMS-986142 and MTX is provided in Online Resource 10.
Individual subject pharmacokinetic parameters for BMS-986142 and MTX were derived by a non-compartmental method using validated PK software (WinNonLin version 6.3; Pharsight Corporation, Mountain View, CA, USA). The following PK parameters for BMS-986142 and MTX were derived from plasma concentration versus time data: maximum observed plasma concentration (Cmax); minimum observed plasma concentration (Cmin); time to maximum observed plasma concentration (Tmax); area under the plasma concentration-time curve from time zero to the time of the last quantifiable concentration (AUC(0-T)), from time zero extrapolated to infinite time (AUC(inf)), and in one dosing interval (AUC(TAU)); terminal plasma half-life (T1/2); and AUC accumulation index (AI_AUC). AI_AUC was calculated to divide AUC(TAU) on day 14 by AUC(TAU) on day 1.
Summary statistics were tabulated for all PK parameters by treatment and study days. Geometric mean (Gmean) and coefficient of variation (CV) are presented for Cmax, AUC(0-T), AUC(inf), AI_AUC, Cmin, and AUC(TAU); arithmetic mean and standard deviation (SD) are presented for T1/2; and median and range are presented for Tmax. Dose proportionality was assessed using the previously described power model. Briefly, the simple linear regression was applied to the natural log of the PK parameters on the natural log of dose using the following equation (Eq. 1).1 ElogPKParameterDose=α+β∗logDose.
A slope (β) equal to 1 would indicate perfect dose proportionality. For each PK parameter (Cmax, AUC(0-T), AUC(TAU), and AUC(inf)), point estimates and 90% CI of the slopes were calculated.

[1] = both sexes, MAD day 14, 25 mg QD

Cc1c(-c2c(F)cc(C(N)=O)c3[nH]c4c(c23)CC[C@H](C(C)(C)O)C4)cccc1-n1c(=O)c2cccc(F)c2n(C)c1=O [BMS-986142, 6-fluoro-5-(R)-(3-(S)-(8-fluoro-1-methyl-2,4-dioxo-1,2-dihydroquinazolin-3(4H)-yl)-2-methylphenyl)-2-(S)-(2-hydroxypropan-2-yl)-2,3,4,9-tetrahydro-1H-carbazole-8-carboxamide]
Accumulation (accumulation index for AUC) (MAD 25-350 mg QD): minimal to modest accumulation | AI_AUC geometric mean (%CV) (AUC(TAU) day 14 / day 1, 25 mg QD): 1.57 (22) | AI_AUC geometric mean (%CV) (AUC(TAU) day 14 / day 1, 75 mg QD): 1.23 (31) | AI_AUC geometric mean (%CV) (AUC(TAU) day 14 / day 1, 200 mg QD): 1.23 (40) | AI_AUC geometric mean (%CV) (AUC(TAU) day 14 / day 1, 350 mg QD): 0.984 (32) | AUC [1]: 539 ng·h/mL | Cmax [1]: 56 ng/mL | concentration at 14 day [1]: 7.85 ng/mL | Tmax [1]: 2 h | half-life (MAD day 14, 25 mg QD): 654 min | AUC (MAD day 14, 75 mg QD): 2470 ng·h/mL | Cmax (MAD day 14, 75 mg QD): 281 ng/mL | concentration at 14 day (MAD day 14, 75 mg QD): 27.9 ng/mL | half-life (MAD day 14, 75 mg QD): 642 min | Tmax (MAD day 14, 75 mg QD): 2 h | AUC (MAD day 14, 200 mg QD): 5530 ng·h/mL | Cmax (MAD day 14, 200 mg QD): 592 ng/mL | concentration at 14 day (MAD day 14, 200 mg QD): 67.6 ng/mL | half-life (MAD day 14, 200 mg QD): 660 min | Tmax (MAD day 14, 200 mg QD): 2 h | AUC (MAD day 14, 350 mg QD): 10700 ng·h/mL | Cmax (MAD day 14, 350 mg QD): 1020 ng/mL | concentration at 14 day (MAD day 14, 350 mg QD): 166 ng/mL | half-life (MAD day 14, 350 mg QD): 612 min | Tmax (MAD day 14, 350 mg QD): 1.5 h
